Assay results as given in US20040147739A1, “Novel anti-infectives” (priority 2003, published 2004).

Target: T1, HCV NS5B (Hepatitis C virus genotype 1b, UniProt P26663)
T1 construct: The NS5B protein (591 amino acids, 65 kDa) of HCV
Assay: biochemical
Conditions: not given
Method: The activity of the inventive compounds as inhibitors of HCV activity may be measured by any of the suitable methods known to those skilled in the art, including in vivo and in vitro assays. For example, the HCV NS5B inhibitory activity of the compounds of Formulas I, II and III was determined using standard assay procedures described in Behrens et al., EMBO J. 15:12-22 (1996), Lohmann et al., Virology 249:108-118 (1998) and Ranjith-Kumar et al., J. Virology 75:8615-8623 (2001).
The HCV NS5B inhibitory activity of the compounds of Formulas I, II m and IV was determined using standard procedures well known to those skilled in the art and described in, for example Behrens et al., EMBO J. 15:12-22 (1996), Lohmann et al., Virology 249:108-118 (1998) and Ranjith-Kumar et al., J. Virology 75:8615-8623 (2001).

T1 sequence (P26663 2420-3010): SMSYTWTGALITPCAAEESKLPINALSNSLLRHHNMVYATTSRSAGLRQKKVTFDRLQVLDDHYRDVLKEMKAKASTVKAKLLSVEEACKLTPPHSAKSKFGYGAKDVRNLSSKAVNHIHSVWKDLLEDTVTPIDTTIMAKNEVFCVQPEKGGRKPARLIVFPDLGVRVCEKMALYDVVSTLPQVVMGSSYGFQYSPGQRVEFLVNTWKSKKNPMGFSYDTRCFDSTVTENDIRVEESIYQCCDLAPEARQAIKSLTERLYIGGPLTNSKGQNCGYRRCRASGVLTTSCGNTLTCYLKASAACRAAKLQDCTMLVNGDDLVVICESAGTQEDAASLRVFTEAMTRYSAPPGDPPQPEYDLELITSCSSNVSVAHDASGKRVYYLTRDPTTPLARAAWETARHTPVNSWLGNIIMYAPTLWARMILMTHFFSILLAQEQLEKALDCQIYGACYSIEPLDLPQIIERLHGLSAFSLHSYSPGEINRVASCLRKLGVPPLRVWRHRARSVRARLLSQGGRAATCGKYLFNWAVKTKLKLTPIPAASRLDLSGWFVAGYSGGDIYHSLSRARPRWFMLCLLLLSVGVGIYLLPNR

| IC50 | SMILES |
| --- | --- |
| > 10 µM | O=c1c(C2=Nc3ccccc3S(=O)(=O)N2)c(O)c2ccccc2n1Cc1ccccc1[N+](=O)[O-] [Example 196, 3-(1,1-Dioxo-1,4-dihydro-1-benzo[1,2,4]thiadiazin-3-yl)-4-hydroxy-1-(2-nitro-benzyl)-1H-quinolin-2-one] |
| > 10 µM | O=c1c(C2=NS(=O)(=O)c3ccccc3N2)c(O)c2ccccc2n1CCCc1ccccc1 [Example 3] |
| > 10 µM | COc1ccc(C(=O)Nc2ccc3c(c2)c(O)c(C2=NS(=O)(=O)c4ccccc4N2)c(=O)n3CCC(C)C)cc1 [Example 37, N-[3-(1,1-Dioxo-1,4-dihydrobenzo[1,2,4]thiadiazin-3-yl)-4-hydroxy-1-(3-methylbutyl)-2-oxo-1,2dihydroquinolin-6-yl]4-methoxybenzamide] |
| > 10 µM | CCOC(=O)c1ccc2c(c1)c(O)c(C1=NS(=O)(=O)c3ccccc3N1)c(=O)n2CCC(C)C [Example 95, 3-(1, i-Dioxo-1,4-dihydrobenzo[1,2,4]thiadiazin-3-yl)-4-hydroxy-1-(3-methylbutyl)-2-oxo-1,2-dihydroquinoline-6-carboxylic acid ethyl ester] |
| > 10 µM | O=c1c(C2=NS(=O)(=O)c3ccccc3N2)c(O)c2ccccc2n1CCO [Example 193, 3-(1,1-Dioxo-1,4-dihydro-1-benzo[1,2,4]thiadiazin-3-yl)-4-hydroxy-1-(2-hydroxyethyl)-1H-quinolin-2-one] |
| > 10 µM | O=c1c(C2=NS(=O)(=O)c3ccccc3N2)c(O)c2ccccc2n1CCc1ccccc1 [Example 1] |
| > 10 µM | CN(C)CCn1c(=O)c(C2=Nc3ccccc3S(=O)(=O)N2)c(O)c2ccccc21 [Example 190, 1-(2-Dimethylamino-ethyl)-3-(1,1-dioxo-1,4-dihydro-1-benzo[1,2,4]thiadiazin-3-yl)-4-hydroxy-1H-quinolin-2-one] |
| > 10 µM | Cc1ccc(F)cc1Cn1c(=O)c(C2=NS(=O)(=O)c3ccccc3N2)c(O)c2ccccc21 [Example 195, 3-(1,1-Dioxo-1,4-dihydro-1-benzo[1,2,4]thiadiazin-3-yl)-1-(5-fluoro-2-methyl-benzyl)4-hydroxy-1H-quinolin-2-one] |
| > 10 µM | CC(C)CCn1c(=O)c(C2=Nc3ccccc3S(=O)(=O)N2)c(O)c2ccc(C(=O)O)cc21 [Example 171, 3-(1,1-Dioxo-1,2-dihydrobenzo[1,2,4]thiadiazin-3-yl)-4-hydroxy-1-(3-methylbutyl)-2-oxo-1,2-dihydro-quinoline-7-carboxylic acid] |
| > 10 µM | CCOC(=O)CCCn1c(=O)c(C2=NS(=O)(=O)c3ccccc3N2)c(O)c2ccccc21 [Example 182, 4-[3-(1,1-Dioxo-1,4-dihydro-1-benzo[1,2,4]thiadiazin-3-yl)-4-hydroxy-2-oxo-2H-quinolin-1-yl]-butyric acid ethyl ester] |
| > 10 µM | NC(=O)CCCn1c(=O)c(C2=Nc3ccccc3S(=O)(=O)N2)c(O)c2ccccc21 [Example 170, 4-[3-(1,1-Dioxo-1,2-dihydrobenzo[1,2,4]thiadiazin-3-yl)-4-hydroxy-2-oxoquinolin-1-yl]butyramide] |
| > 10 µM | COc1ccc(CCNC(=O)c2ccc3c(c2)S(=O)(=O)N=C(c2c(O)c4ccccc4n(CCC4CC4)c2=O)N3)cc1 [Example 102, 3-[1-(2-Cyclopropylethyl)-4-hydroxy-2-oxo-1,2-dihydroquinolin-3-yl]-1,1-dioxo-1,4 dihydroenzo[1,2,4]thiadiazine-7-carboxylic acid [2-(4-methoxyphenyl)ethyl]amide] |
| > 10 µM | CC(C)CCn1c(=O)c(C2=NS(=O)(=O)c3cc(I)ccc3N2)c(O)c2ccccc21 [Example 181, 4-Hydroxy-3-(7-iodo-1,1-dioxo-1,4-dihydro-1-benzo[1,2,4]thiadiazin-3-yl)-1-(3-methylbutyl)-1H-quinolin-2-one] |
| > 10 µM | CC(C)CCc1cccc2c(O)c(C3=NS(=O)(=O)c4ccccc4N3)c(=O)[nH]c12 [Example 186, 3-(1,1-Dioxo-1,4-dihydro-1-benzo[1,2,4]thiadiazin-3-yl)-4-hydroxy-8-(3-methylbutyl)-1H-quinolin-2-one] |
| > 10 µM | CC(C)CCn1c(=O)c(C2=Nc3ccccc3S(=O)(=O)N2)c(O)c2ccc(Br)cc21 [Example 173, 7-bromo-3-(1,1-dioxo-1,2-dihydrobenzo[1,2,4]thiadiazin-3-yl)-4-hydroxy-1-(3-methylbutyl)-1H-quinolin-2-one] |
| > 10 µM | O=C(O)CCCn1c(=O)c(C2=Nc3ccccc3S(=O)(=O)N2)c(O)c2ccccc21 [Example 183, 4-[3-(1,1-Dioxo-1,4-dihydro-1-benzo[1,2,4]thiadiazin-3-yl)-4-hydroxy-2-oxo-2H-quinolin-1-yl]-butyric acid] |
| > 10 µM | CC(C)CCn1c(=O)c(C2=NS(=O)(=O)c3ccccc3N2)c(O)c2cc(I)ccc21 [Example 185, 3-(1,1-Dioxo-1,4-dihydro-1-benzo[1,2,4]thiadiazin-3-yl)-4-hydroxy-6-iodo-1-(3-methylbutyl)-1H-quinolin-2-one] |
| > 10 µM | CC(C)CCn1c(=O)c(C2=NS(=O)(=O)c3ccccc3N2)c(O)c2c(C(=O)O)cccc21 [Example 188, 3-(1,1-Dioxo-1,4-dihydro-1-benzo[1,2,4]thiadiazin-3-yl)-4-hydroxy-1-(3-methylbutyl)-2-oxo-1,2-dihydro-quinoline-5-carboxylic acid] |

Same assay, conditions: screening rate of 10 uM

| SMILES | biological activity at the screening rate of 10 uM |
| --- | --- |
| CC(C)CCn1c(=O)c(C2=NS(=O)(=O)c3c(Br)cccc3N2)c(O)c2ccccc21 [Example 203, 3-(8-Bromo-1,1-dioxo-1,4-dihydro-1-benzo[1,2,4]thiadiazin-3-yl)-4-hydroxy-1-(3-methylbutyl)-1H-quinolin-2-one] | did not demonstrate biological activity |
| CC(C)CCn1c(=O)c(C2=NS(=O)(=O)c3ccccc3N2)c(O)c2cc(C(=O)N(C)C)ccc21 [Example 206, 3-(1,1-Dioxo-1,4-dihydro-1-benzo[1,2,4]thiadiazin-3-yl)-4-hydroxy-1-(3-methylbutyl)-2-oxo-1,2-dihydro-quinoline-6-carboxylic acid dimethylamide] | did not demonstrate biological activity |
| O=c1c(C2=NS(=O)(=O)c3ccccc3N2)c(O)c2ccccc2n1CCN1CCCC1 [Example 207, 3-(1,1-Dioxo-1,4-dihydro-1-benzo[1,2,4]thiadiazin-3-yl)-4-hydroxy-1-(2-pyrrolidin-1-yl-ethyl)-1H-quinolin-2-one] | did not demonstrate biological activity |
| O=c1c(C2=Nc3ccccc3S(=O)(=O)N2)c(O)c2ccccc2n1-c1ccccc1 [Example 201, 3-(1,1-Dioxo-1,2-dihydrobenzo[1,2,4]thiadiazin-3-yl)-4-hydroxy-1-phenyl-1H-quinolin-2-one] | did not demonstrate biological activity |
| CC(C)CCn1c(=O)c(C2=NS(=O)(=O)c3ccccc3N2)c(O)c2ccc(/C=C/C(N)=O)cc21 [Example 204, (E)-3-[3-(1,1-Dioxo-1,4-dihydro-1-benzo[1,2,4]thiadiazin-3-yl)-4-hydroxy-1-(3-methylbutyl)-2-oxo-1,2-dihydro-quinolin-7-yl]acrylamide] | did not demonstrate biological activity |
| CC(C)CCn1c(=O)c(C2=Nc3ccccc3S(=O)(=O)N2)c(O)c2ccc(Cl)cc21 [Example 199, 7-Chloro-3-(1,1-dioxo-1,2-dihydrobenzo[1,2,4]thiadiazin-3-yl)-4-hydroxy-1-(3-methylbutyl)-H-quinolin-2-one] | did not demonstrate biological activity |
